Experiment: logP by chromatography, internally standardized with toluene and triphenylene
Type: physicochemical
Conditions: pH = 7
Procedure: Microblends of herbicides were prepared using melts of mixtures of nonionic block copolymer and ethoxylated surfactants. Specifically, tristyrylphenol etoxylate (Soprophor BSU, Rhodia) was used in combination with Pluronic P123 (PEO20-PPO69-PEO20), The list of the herbicides and corresponding log P values (the log P values were measured according procedure described by Donovan and Pescatore, J. Chromatography A 2002, 952, 47-61) are presented in Table 24. All log P values were measured at pH 7, except for clethodim, measured at pH 2. First, a stock blend of Pluronic P123 and Soprophor BSU was prepared by melting together 50 g of Pluronic P123 with 50 g of Soprophor BSU at 70° C. to form a clear, homogeneous melt. Composition of the copolymer/surfactant mixture was P123:Soprophor=1:1 by weight. […] The mixtures were heated at 70° C. for 10 min and shaken.

Molecule | logP Average
COP(=S)(OC)Oc1c(Cl)cc(C)cc1Cl [Tolclofos-methyl] | 4.418
Trisulfuron-methyl | 0.510

From patent US20090306003A1, “Pesticide Delivery System” (priority 2006, published 2009)
